Assay results as given in patent US20260285850A1, “SUBSTITUTED OXAZOLIDINONES AND IMIDAZOLINONES AS HERBICIDES” (FMC CORPORATION, priority 2023, published 2026).

Tests used:
Assay type in all cases: in vivo
[1] = test system: ryegrass, Italian (italian ryegrass, Lolium multiflorum); test: Test A postemergence application, visual injury rating 0-100
Procedure, shortened: (§1)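 Grow plants in loam soil blended with sand. Apply formulated compound (non-phytotoxic solvent, surfactant) as a directed soil spray before emergence, or to plants at the one- to two-leaf stage after emergence. Hold in greenhouse 10 days, then rate injury visually versus untreated controls on a 0-100 scale.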

[2] = test system: oat, wild (wild oat, Avena fatua); test: as above
Procedure, shortened: as §1

[3] = test system: horseweed (Erigeron canadensis); test: as above
Procedure, shortened: as §1

[4] = test system: palmer (palmer amaranth, palmer pigweed, Amaranthus palmeri); test: as above
Procedure, shortened: as §1

kochia (Bassia scoparia) [5] = test: as above
Procedure, shortened: as §1

soybean (Glycine max) [6] = test: as above
Procedure, shortened: as §1

[7] = test system: galium (catchweed bedstraw, Galium aparine); test: as above
Procedure, shortened: as §1

[8] = test system: green foxtail (Setaria viridis); test: as above
Procedure, shortened: as §1

[9] = test system: barnyardgrass (Echinochloa crus-galli); test: as above
Procedure, shortened: as §1

[10] = test system: wheat (Triticum aestivum); test: as above
Procedure, shortened: as §1

[11] = test system: ragweed (common ragweed, Ambrosia artemisiifolia); test: as above
Procedure, shortened: as §1

[12] = test system: blackgrass (Alopecurus myosuroides); test: as above
Procedure, shortened: as §1

corn (Zea mays) [13] = test: as above
Procedure, shortened: as §1

rice (Oryza sativa) = test: Test B flooded paddy test, visual plant response rating 0-100; conditions: 250 g ai/ha, Flood, applied to paddy water, evaluated after 13 days
Procedure, shortened: (§2)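 Treatment occurs at the 2-leaf stage by adding compound to floodwater standing 3 cm above the soil, a level kept for the whole test. Plants stay in the greenhouse 13 days before visual comparison with controls.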

[14] = test system: barnyardgrass (Echinochloa crusgalli); test: as above; conditions: 250 g ai/ha, Flood, applied to paddy water, evaluated after 13 days
Procedure, shortened: as §2

[15] = test system: ducksalad (Heteranthera limosa); test: as above; conditions: 250 g ai/ha, Flood, applied to paddy water, evaluated after 13 days
Procedure, shortened: as §2

[16] = test system: sedge, umbrella (small-flower umbrella sedge, Cyperus difformis); test: as above; conditions: 250 g ai/ha, Flood, applied to paddy water, evaluated after 13 days
Procedure, shortened: as §2

[17] = test system: ryegrass, Italian (italian ryegrass, Lolium multiflorum); test: Test A preemergence soil spray, visual injury rating 0-100; conditions: 10 days
Procedure, shortened: as §1

[18] = test system: oat, wild (wild oat, Avena fatua); test: as above; conditions: 10 days
Procedure, shortened: as §1

[19] = test system: palmer (palmer amaranth, palmer pigweed, Amaranthus palmeri); test: as above; conditions: 62 g ai/ha, 10 days, 0 = no effect, 100 = complete control
Procedure, shortened: as §1

kochia (Bassia scoparia) [20] = test: as above; conditions: 10 days
Procedure, shortened: as §1

soybean (Glycine max) [21] = test: as above; conditions: 10 days
Procedure, shortened: as §1

[22] = test system: green foxtail (Setaria viridis); test: as above; conditions: 10 days
Procedure, shortened: as §1

[23] = test system: barnyardgrass (Echinochloa crus-galli); test: as above; conditions: 10 days
Procedure, shortened: as §1

[24] = test system: wheat (Triticum aestivum); test: as above; conditions: 10 days
Procedure, shortened: as §1

[25] = test system: ragweed (common ragweed, Ambrosia artemisiifolia); test: as above; conditions: 10 days
Procedure, shortened: as §1

[26] = test system: blackgrass (Alopecurus myosuroides); test: as above; conditions: 10 days
Procedure, shortened: as §1

corn (Zea mays) [27] = test: as above; conditions: 10 days
Procedure, shortened: as §1

[28] = 62 g ai/ha, postemergence, 10 days, 0 = no effect, 100 = complete control
[29] = Postemergence, 16 g ai/ha, greenhouse 10 days, 0 no effect, 100 complete control
[30] = 62 g ai/ha, 0 = no effect, 100 = complete control

COC(=O)C1=CCC(NC(=O)C2(C)CN(c3cc(F)cc(Cl)c3)C(=O)O2)C1 (stereo not drawn) [Compound 140]
65: Plant response rating, Rice (0 to 100 scale, 0 is no effect and 100 is complete control) (rice (Oryza sativa)) | Plant response rating, Ducksalad (0 to 100 scale, 0 is no effect and 100 is complete control) [15]
70: Soybean plant response rating (0-100) (soybean (Glycine max) [6]; [28]) | Soybean plant response rating (0 to 100 scale) (soybean (Glycine max) [6]; [29]) | Galium plant response rating (0 to 100 scale) [7, 29] | Ragweed plant response rating (0-100) [11, 28]
0: Soybean plant response rating (soybean (Glycine max) [21]; 16 g ai/ha, 0 to 100 scale) | Ragweed plant response rating ([25]; 16 g ai/ha, 0 to 100 scale) | Ragweed plant response rating (0-100) [25, 30] | Blackgrass plant response rating ([26]; 16 g ai/ha, 0 to 100 scale)
50: Ragweed plant response rating (0 to 100 scale) [11, 29] | Ryegrass, Italian plant response rating ([17]; 16 g ai/ha, 0 to 100 scale) | Kochia plant response rating (kochia (Bassia scoparia) [20]; 16 g ai/ha, 0 to 100 scale) | Barnyardgrass plant response rating ([23]; 16 g ai/ha, 0 to 100 scale) | Blackgrass plant response rating (0-100) [26, 30]
85: Plant response rating, Barnyardgrass (0 to 100 scale, 0 is no effect and 100 is complete control) [14]
80: Ryegrass, Italian plant response rating (0-100) [1, 28] | Horseweed plant response rating (0 to 100 scale) [3, 29] | Pigweed, Palmer plant response rating (0-100) [4, 28] | Wheat plant response rating (0 to 100 scale) [10, 29] | Soybean plant response rating (0-100) (soybean (Glycine max) [21]; [30]) | Foxtail, Green plant response rating ([22]; 16 g ai/ha, 0 to 100 scale) | Wheat plant response rating (0-100) [24, 30]
10: Corn plant response rating (corn (Zea mays) [27]; 16 g ai/ha, 0 to 100 scale)
90: Oat, Wild plant response rating (0-100) [2, 28] | Horseweed plant response rating (0-100) [3, 28] | Kochia plant response rating (0-100) (kochia (Bassia scoparia) [5]; [28]) | Kochia plant response rating (0 to 100 scale) (kochia (Bassia scoparia) [5]; [29]) | Galium plant response rating (0-100) [7, 28] | Foxtail, Green plant response rating (0-100) [8, 28] | Foxtail, Green plant response rating (0 to 100 scale) [8, 29] | Wheat plant response rating (0-100) [10, 28] | Blackgrass plant response rating (0 to 100 scale) [12, 29] | Ryegrass, Italian plant response rating (0-100) [17, 30] | Pigweed, Palmer plant response rating (0-100) [19] | Foxtail, Green plant response rating (0-100) [22, 30]
40: Wheat plant response rating ([24]; 16 g ai/ha, 0 to 100 scale)
60: Ryegrass, Italian plant response rating (0 to 100 scale) [1, 29] | Oat, Wild plant response rating (0 to 100 scale) [2, 29] | Pigweed, Palmer plant response rating (0 to 100 scale) [4, 29] | Corn plant response rating (0-100) (corn (Zea mays) [27]; [30])
100: Barnyardgrass plant response rating (0-100) [9, 28] | Barnyardgrass plant response rating (0 to 100 scale) [9, 29] | Blackgrass plant response rating (0-100) [12, 28] | Corn plant response rating (0-100) (corn (Zea mays) [13]; [28]) | Corn plant response rating (0 to 100 scale) (corn (Zea mays) [13]; [29]) | Plant response rating, Sedge, Umbrella (0 to 100 scale, 0 is no effect and 100 is complete control) [16] | Kochia plant response rating (0-100) (kochia (Bassia scoparia) [20]; [30]) | Barnyardgrass plant response rating (0-100) [23, 30]
20: Oat, Wild plant response rating ([18]; 16 g ai/ha, 0 to 100 scale) | Oat, Wild plant response rating (0-100) [18, 30]
